These results are taken from patent publication US20050009837A1, “Modulators of lipid metabolism and methods of use” (City of Hope, priority 2003, published 2005).

Assay [1] deals with T1, LXRα (Homo sapiens, UniProt Q13133).
T1 construct: expressed in transfected cells; host or cells: CV-1 cells
T1 sequence (Q13133 209-447 limits assumed): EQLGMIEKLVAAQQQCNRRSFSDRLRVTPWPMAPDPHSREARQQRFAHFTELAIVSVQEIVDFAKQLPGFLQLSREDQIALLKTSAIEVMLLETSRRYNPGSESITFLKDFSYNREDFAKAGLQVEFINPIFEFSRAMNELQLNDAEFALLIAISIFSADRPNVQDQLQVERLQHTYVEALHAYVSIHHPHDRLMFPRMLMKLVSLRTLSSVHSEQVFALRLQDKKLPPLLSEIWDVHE
T1 sequence (P19793 227-458 partner limits assumed): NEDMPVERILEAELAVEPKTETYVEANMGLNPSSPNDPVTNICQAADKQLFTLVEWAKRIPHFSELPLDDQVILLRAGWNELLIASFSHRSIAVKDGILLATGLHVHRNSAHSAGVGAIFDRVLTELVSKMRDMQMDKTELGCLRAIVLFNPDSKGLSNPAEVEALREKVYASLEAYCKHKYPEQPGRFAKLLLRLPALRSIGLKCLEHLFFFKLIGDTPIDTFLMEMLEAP
Kind of assay: Transient transfection assay Gal-hLXRα + RXR LBD, UASGx4 TK Luc reporter, CV-1 cells. Type of assay: cell-based. The method, then:
(§1) Synthetic compounds were screened in an effort to find more specific LXR inhibitors. CV-1 cells were maintained and transfected using known methods. Forman et al., Cell 81: 687-693, 1995. CV-1 cells were transiently transfected with Gal-hLXRα, the RXR LBD, the UASGx4 TK Luc reporter and CMX-β-gal as an internal control, either in standard or in lipid-stripped serum. After transfection, cells were treated for approximately 40 hours with phenol red-free DMEM-FBS containing the indicated compounds at the following concentrations: T0901317 (100 nM), Clotrimazole (10 μM), S883417(10 μM) and S100250 (10 μM), unless otherwise specified. After exposure to ligand, the cells were harvested and assayed for luciferase and β-galactosidase activity. The luciferase activity was normalized to the internal β-galactosidase control (reporter activity).
(§2) The ability of these compounds to repress LXRα and LXRβ was compared by transfecting CV-1 cells with either the RXR LBD alone or the RXR LBD together with either Gal-LXRα or Gal-LXRβ.
(§3) Transfections were performed as described above, with increasing concentrations of Clotrimazole.

In assay [2] the target is T2, LXRα-RXR heterodimers / SRC-1 (Homo sapiens, UniProt Q13133).
T2 construct: made in house; host or cells: receptors translated in vitro
T2 sequence (Q13133 whole entry): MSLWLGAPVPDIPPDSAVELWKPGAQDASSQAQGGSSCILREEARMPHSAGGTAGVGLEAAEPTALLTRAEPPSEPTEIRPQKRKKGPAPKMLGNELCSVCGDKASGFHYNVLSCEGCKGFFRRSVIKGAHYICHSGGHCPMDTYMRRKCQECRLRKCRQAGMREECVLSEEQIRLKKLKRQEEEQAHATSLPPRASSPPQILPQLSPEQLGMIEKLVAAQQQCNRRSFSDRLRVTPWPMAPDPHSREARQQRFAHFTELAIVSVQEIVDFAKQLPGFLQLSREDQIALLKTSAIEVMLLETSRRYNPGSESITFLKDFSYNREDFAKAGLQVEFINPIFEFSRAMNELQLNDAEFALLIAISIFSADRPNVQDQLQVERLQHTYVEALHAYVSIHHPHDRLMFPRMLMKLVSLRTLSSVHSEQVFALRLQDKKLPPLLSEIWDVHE
T2 sequence (P19793 whole entry partner): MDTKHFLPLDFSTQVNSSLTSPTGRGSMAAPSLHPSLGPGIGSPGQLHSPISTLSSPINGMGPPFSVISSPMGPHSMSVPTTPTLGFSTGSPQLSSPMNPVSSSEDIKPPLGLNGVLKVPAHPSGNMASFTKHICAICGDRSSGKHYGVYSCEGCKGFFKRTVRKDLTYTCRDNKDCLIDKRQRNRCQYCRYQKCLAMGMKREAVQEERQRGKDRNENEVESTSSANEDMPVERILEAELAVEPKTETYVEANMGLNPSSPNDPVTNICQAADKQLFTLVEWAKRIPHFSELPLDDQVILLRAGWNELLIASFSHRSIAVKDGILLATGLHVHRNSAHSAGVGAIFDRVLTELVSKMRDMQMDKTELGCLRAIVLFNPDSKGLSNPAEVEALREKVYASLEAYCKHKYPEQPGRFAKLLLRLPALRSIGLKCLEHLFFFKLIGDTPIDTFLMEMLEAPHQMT
Kind of assay: In vitro coactivator recruitment/displacement assay (gel), LXRα, RXR, GST-SRC-1, 32P-LXRE probe. Type of assay: biochemical. The note with it: 10 μM. The protocol: This was tested more directly using an in vitro coactivator recruitment/coactivator displacement assay. This assay has the advantage that it is performed with receptors bound to DNA and that it measures a direct interaction between receptor and coactivator with no interference by other proteins that may indirectly stabilize the complex. The assay was performed by mixing in vitro translated LXRα or LXRβ, RXR, 5 μg of purified GST-SRC-1 and a ^32P-labeled LXRE probe with or without 10 μM Clotrimazole according to previously described methods. Wang et al., Mol. Cell 3:543-553, 1999. The complexes then were separated through 5.5% polyacrylamide gels. The probe used represents a DR-4 element derived from the human SREBP-1c promoter (nt 337-361, accession no. AB046200).

Assay [3] addresses T3, LXRβ (Homo sapiens, UniProt P55055).
T3 construct: expressed in transfected cells; host or cells: CV-1 cells
T3 sequence (P55055 222-460 limits assumed): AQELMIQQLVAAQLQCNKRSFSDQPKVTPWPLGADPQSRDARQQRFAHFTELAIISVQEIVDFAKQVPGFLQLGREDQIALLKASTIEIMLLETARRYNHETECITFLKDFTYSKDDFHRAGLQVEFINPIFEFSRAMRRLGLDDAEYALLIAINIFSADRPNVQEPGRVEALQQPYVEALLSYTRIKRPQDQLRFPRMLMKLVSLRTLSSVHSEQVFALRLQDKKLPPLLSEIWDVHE
T3 sequence (P19793 227-458 partner limits assumed): T1 sequence (P19793 227-458 partner limits assumed)
Description: Transient transfection assay Gal-LXRβ + RXR LBD, UASGx4 TK Luc reporter, CV-1 cells. Type of assay: cell-based. The protocol: as §1, §2, §3

Assay [4] has as its target T4, LXRβ - coactivator SRC-1 interaction (Homo sapiens, UniProt P55055).
T4 construct: expression plasmids for Gal-SRC-1, VP-LXRα LBD or VP-LXRβ LBD, the RXR LBD; expressed in transfected cells; host or cells: CV-1 cells
Description: Mammalian two-hybrid assay Gal-SRC-1 / VP-LXRβ LBD / RXR LBD in CV-1 cells. Type of assay: cell-based. The note with it: 40 hours. An excerpt:
(§4) One characteristic of nuclear receptor antagonists is their ability to displace coactivators bound to ligand-activated receptors. Thus, if Clotrimazole is an antagonist of LXR, it should inhibit the recruitment of coactivators. To test this, a mammalian two-hybrid assay was used. In this assay, CV-1 cells were transfected with Gal-SRC-1, VP-LXRα or VP-LXRβ, the RXR LBD and a reporter construct. In this type of assay, therefore, only a protein-protein interaction between the coactivator SRC-1 and LXR can result in transcriptional activity. The mammalian two-hybrid assay of FIG. 6 was performed by transfecting CV-1 cells with expression plasmids for Gal-SRC-1, VP-LXRα LBD or VP-LXRβ LBD, the RXR LBD and the USAGx4 Tkluc reporter. Cells were treated for 40 hours with Clotrimazole before luciferase and β-galactosidase activities were measured. Gal-SRC in FIG. 6 refers to a fusion between the Gal4 DNA binding domain and the three receptor interaction domains of SRC-1.

The target in assay [5] is T5, LXRα - coactivator SRC-1 interaction (Homo sapiens, UniProt Q13133).
T5 construct: expression plasmids for Gal-SRC-1, VP-LXRα LBD or VP-LXRβ LBD, the RXR LBD; expressed in transfected cells; host or cells: CV-1 cells
Kind of assay: Mammalian two-hybrid assay Gal-SRC-1 / VP-LXRα LBD / RXR LBD in CV-1 cells. Type of assay: cell-based.
Excerpt: as §4

Assay [6] relates to SRE reporter (FAS proximal promoter). Kind of assay: SRE reporter (FAS proximal promoter-luciferase) assay in CV-1 cells. Type of assay: cell-based. The protocol:
Since LXR regulates SREBP-1c expression, LXR also should regulate activities downstream of SREBP-1c. To test this, CV-1 cells were transiently transfected with as in Example 6, but with the SRE or the SREm reporter, SREBP-1c-dependent reporter constructs consisting of the FAS proximal promoter linked to the luciferase gene. […] See Wang et al., Mol. Cell 3:543-553, 1999, the disclosures of which are hereby incorporated by reference. Cells then were treated as in Example 6 with the indicated compounds, Clotrimazole or 25-hydroxycholesterol (25-OH cholesterol). 25-OH cholesterol is known to repress the synthesis of SREBP-1c and is therefore used to eliminate the effects of this transcription factor on the FAS promoter (SRE).

Assay [7] addresses T6, RXR (Homo sapiens, UniProt P19793).
T6 construct: transfecting CV-1 cells with either the RXR LBD alone; expressed in transfected cells; host or cells: CV-1 cells
Kind of assay: Transient transfection assay RXR LBD alone, UASGx4 TK Luc reporter, CV-1 cells. The note with it: lipid-stripped serum. Type of assay: cell-based. The protocol: as §1, §2

The mark [8] stands for this setting: 10 μM, approximately 40 hours, lipid-stripped serum.

Molecules are shown by their SMILES. pEC50: −log10 of the molar value.

The pEC50 is the EC50 on a negative log10 scale, so that one unit is a factor of ten. As to `Clc1ccccc1C(c1ccccc1)(c1ccccc1)n1ccnc1` [Clotrimazole], in assay [1] (setting [8]), the “repression of LXRα activity” value is listed as “powerful antagonist”. Moreover, the “antagonist potency LXRα compared with LXRβ” value in assay [1] (dose-response, FIG. 5) is “more potent antagonist of LXRα than LXRβ”. Besides, the pEC50 in assay [1] (dose-response, increasing concentrations, read-out: EC50 for repression of LXRα constitutive activity) was roughly 5.00; in assay [3] (dose-response, increasing concentrations, read-out: EC50 for repression of LXRβ constitutive activity) it was roughly 5.00. In assay [2] (lane 3), the “effect on LXRα-RXR heterodimers (bound to LXRE probe)” value is “no effect”. Moreover, the “interaction of LXRα-RXR with SRC-1” value in assay [2] (lane 4) is “prevented the interaction with SRC-1”. The “repression of LXRβ activity” value in assay [3] (setting [8]) is “powerful antagonist”. Moreover, in assay [4], the “interaction of LXRβ with coactivator SRC-1” value was “inhibited this interaction”. Further, the “interaction of LXRα with coactivator SRC-1” value in assay [5] (40 hours, two-hybrid) is listed as “inhibited this interaction”. The basal transcription entry in assay [5] (two-hybrid specificity control) is on record as “did not inhibit basal transcription”. In addition, the “LXRα induction of SRE reporter activity” value in assay [6] (LXRα co-transfected (3-fold increase)) is recorded as “prevented this induction”. In assay [6] (LXRβ co-expression (almost 2-fold increase)), the “LXRβ induction of SRE reporter activity” value is listed as “prevented this induction”. For the same molecule, in assay [6] (SREm reporter), the “activity of reporter containing mutated SRE” value is “no significant effects”. Also, in assay [6] (absence of LXR), the “repression of SRE reporter” value is given as “only a weak repressive effect”. Further, the “effect on RXR” value in assay [7] is listed as “no effect”.
